Assay results reported in patent publication EP0460690A2, “Use of phenolsulfophthaline derivatives for the treatment of osteoporosis” (THE GREEN CROSS CORPORATION, priority 1990, dated 1991).

Tests used:
[1] = test system: Wister female rats; assay: Acute toxicity, oral administration; format: in vivo; conditions: dispersed in 5 % Tween 20, eight rats, dose of 1 g/kg body weight
From the text: Compound 1 dispersed in 5 % Tween 20 was orally administered to eight Wister female rats aged 7 to 8 months.

[2] = test system: rats suffering from osteoporosis; assay: Bone mass increase in osteoporosis rats (ovariectomy and sciatic nerve excision); format: in vivo, Wister female rats; conditions: thigh bone, oral 100 µg/kg body weight everyday in 5 % Tween 20, after 12 weeks; for Bone Mass Ash wt./unit vol.: carrier 370 ± 19, normal rats 387 ± 16; for Bone Mass Dry wt./unit vol.: carrier 821 ± 15, normal rats 976 ± 11
From the text: The effects of the phenolsulfophthalein compounds of the present invention of increasing bone mass were examined by using rats suffering from osteoporosis.
Wister female rats aged 7 to 8 months (8 rats per group) were subjected to ovariectomy and sciatic nerve excision to thereby cause osteoporosis. Starting from the next day after the operation, compound 1, as described above, and compound 2 (represented by formula (I), wherein R¹ and R² are both acetyl groups) each dispersed in 5 % Tween 20 were orally administered in a dose of 100 µg/kg body weight everyday. After 12 weeks, the thigh bones of the animals were collected and the volume, dry weight and ash weight were measured. Thus the dry weight and ash weight per unit volume were determined.

[3] = biological target: T1, estrogen receptor in mastocarcinoma (Homo sapiens, UniProt P03372); conditions: literature report; cited from earlier work
T1 construct: host or cells: mastocarcinoma
T1 sequence (P03372 1-595): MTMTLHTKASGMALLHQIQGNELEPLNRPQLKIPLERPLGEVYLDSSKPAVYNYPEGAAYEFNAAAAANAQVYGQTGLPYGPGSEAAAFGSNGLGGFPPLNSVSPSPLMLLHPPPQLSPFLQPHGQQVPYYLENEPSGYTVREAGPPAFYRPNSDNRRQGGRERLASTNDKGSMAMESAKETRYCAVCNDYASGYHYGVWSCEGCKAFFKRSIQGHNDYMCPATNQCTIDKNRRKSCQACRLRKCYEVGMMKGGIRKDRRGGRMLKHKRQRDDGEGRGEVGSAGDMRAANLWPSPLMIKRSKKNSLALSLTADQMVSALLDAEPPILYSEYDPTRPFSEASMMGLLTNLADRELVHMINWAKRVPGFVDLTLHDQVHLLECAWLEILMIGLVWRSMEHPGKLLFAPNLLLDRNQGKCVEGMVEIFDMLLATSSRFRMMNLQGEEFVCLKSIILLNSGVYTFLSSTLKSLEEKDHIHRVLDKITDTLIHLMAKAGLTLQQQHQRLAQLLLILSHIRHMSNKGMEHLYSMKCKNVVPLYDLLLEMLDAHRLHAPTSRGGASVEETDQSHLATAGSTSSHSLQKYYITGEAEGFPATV

SMILES | mortality (acute toxicity) [1] | Bone Mass Ash wt./unit vol. [2] | Bone Mass Dry wt./unit vol. [2] | binding to estrogen receptor [3]
O=S(=O)(Oc1ccccc1)c1ccccc1C(c1ccc(O)cc1)c1ccc(O)cc1 [compound 1] | no animal died | 385 ± 12 mg/mL | 861 ± 12 mg/mL | 
CC(=O)Oc1ccc(C(c2ccc(OC(C)=O)cc2)c2ccccc2S(=O)(=O)Oc2ccccc2)cc1 [compound 2] |  | 383 ± 14 mg/mL | 856 ± 15 mg/mL | 
O=S(=O)(Oc1ccccc1)c1ccccc1C(c1ccc(O)cc1)c1ccc(O)cc1 [drawing 1] |  |  |  | binding to an estrogen receptor
